Test: In vivo pharmacokinetic study after intragastric administration in rats
Details: both sexes, Wistar, rat, po, 25 mg·kg^−1 of ABZ
Method: Eighteen Wistar rats were selected and divided into three groups, with half of them being male and the other half being female. Each group was given a dose of 25 mg·kg^−1 of ABZ by intragastric administration. Blood samples of 200–500 μL were collected from each rat at 0.5, 1, 2, 4, 6, 8, 10, 12, and 24 h after administration and were placed into pre-prepared anticoagulant centrifuge tubes. The samples were centrifuged at 13,000 rpm for 10 min, and the upper plasma was collected and stored at −80 °C in an ultra-low temperature refrigerator.
For sample preparation, plasma was thawed, and 50 μL of plasma was mixed with 150 μL of methanol. The mixture was vortexed for 1 min and then centrifuged at 13,000 rpm for 10 min. The supernatant (135 μL) was collected, followed by the addition of 200 ng·mL^−1 mebendazole as the internal standard. The sample was vortexed for 1 min and then filtered through a microporous membrane. The drug content was quantified using UHPLC-MS/MS (UltiMate 3000 and Q-Exactive Orbitrap MS, Thermo Scientific, USA). Pharmacokinetic parameters were calculated using DAS 2.0 software.
Chromatographic conditions: An Accucore aQ UHPLC column (150 mm × 2.1 mm × 2.5 μm) was used. The column temperature was maintained at 40 ± 1 °C, and the sample tray was kept at 15 ± 0.5 °C. The mobile phase consisted of acetonitrile (A) and water with 0.1% formic acid (B). The elution gradient was as follows: 0–5 min, 95% B. The injection volume was 1 μL, and the flow rate was set to 0.3 mL·min^−1.
Mass spectrometry conditions: Electrospray ionization (ESI) was used with high-purity nitrogen (purity > 99.9%) as the carrier gas. The sheath gas flow rate was 35 Arb, and the auxiliary gas flow rate was 10 Arb. The capillary temperature was set to 320 °C, with the ion lens (S-lens RF level) voltage frequency at 60. The spray voltage was 3.0 kV (positive mode), and full MS positive switching scanning mode was employed, with a scanning range of 150–800.

Q: Which half-life (in vivo, n = 6) does the source give for `CCCSc1ccc2nc(NC(=O)OC)[nH]c2c1` [ABZ, albendazole] here?
A: 2 ± 0.38 h

Q: What about the AUC(0-inf) (plasma, n = 6) of the same compound?
A: 0.22 ± 0.0253 µg·h/mL

Q: What about the AUC(0-t) (plasma, n = 6) of the same compound?
A: 0.216 ± 0.0276 µg·h/mL

Q: And the Cmax (plasma, n = 6)?
A: 0.0341 ± 0.00519 µg/mL

Q: And the Tmax (plasma, n = 6)?
A: 2 ± 0.38 h

Q: And the MRT last (plasma, n = 6, read-out: MRT0–t)?
A: 6.16 ± 0.36 h

Q: And the MRT inf (plasma, n = 6, read-out: MRT0–∞)?
A: 6.55 ± 0.37 h

Source: paper PMC12195660, “Preparation and Evaluation of an Oral Administration System of Albendazole-Metal-Organic Framework Based on Dual Response to pH and Enzymes” (Pharmaceuticals, 2025)
